# Results published in paper PMC3223731, “Environment sensing and response mediated by ABC transporters” (BMC Genomics, 2011).
# Key:
# Format in all cases: binding
# RPA4029 = target: T1, RPA4029 (Rhodopseudomonas palustris, UniProt Q6N2M1); assay: fluorescence thermal shift (SYPRO orange); conditions: 100x ligand over protein (5 or 10 µM protein); 100 mM HEPES, 150 mM NaCl, pH 7.5
# T1 construct: gene TX73_020875; mature form, signal peptide removed; N-terminal 6xHis-TEV tag retained; E. coli
# T1 sequence (Q6N2M1 28-392): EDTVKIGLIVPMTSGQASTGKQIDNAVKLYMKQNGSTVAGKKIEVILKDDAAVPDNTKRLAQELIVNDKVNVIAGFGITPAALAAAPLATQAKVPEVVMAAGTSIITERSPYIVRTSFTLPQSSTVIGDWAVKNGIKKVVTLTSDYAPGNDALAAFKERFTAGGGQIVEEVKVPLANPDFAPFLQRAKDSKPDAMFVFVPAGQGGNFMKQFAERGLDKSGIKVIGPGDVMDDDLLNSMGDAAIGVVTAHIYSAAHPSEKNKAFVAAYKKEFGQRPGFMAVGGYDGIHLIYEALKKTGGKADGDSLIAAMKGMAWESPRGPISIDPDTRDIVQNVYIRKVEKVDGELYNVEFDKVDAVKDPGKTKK
# RPA0668 (hbaE) = target: T2, RPA0668 (hbaE) (Rhodopseudomonas palustris, UniProt G3XCQ4); assay: fluorescence thermal shift (SYPRO orange); conditions: 100x ligand over protein (5 or 10 µM protein); 100 mM HEPES, 150 mM NaCl, pH 7.5
# T2 construct: mature form, signal peptide removed; N-terminal 6xHis-TEV tag retained; E. coli
# RPA0985 = target: T3, RPA0985 (Rhodopseudomonas palustris, UniProt Q6NB45); assay: fluorescence thermal shift (SYPRO orange); conditions: 100x ligand over protein (5 or 10 µM protein); 100 mM HEPES, 150 mM NaCl, pH 7.5
# T3 construct: mature form, signal peptide removed; N-terminal 6xHis-TEV tag retained; E. coli
# T3 sequence (Q6NB45 23-390): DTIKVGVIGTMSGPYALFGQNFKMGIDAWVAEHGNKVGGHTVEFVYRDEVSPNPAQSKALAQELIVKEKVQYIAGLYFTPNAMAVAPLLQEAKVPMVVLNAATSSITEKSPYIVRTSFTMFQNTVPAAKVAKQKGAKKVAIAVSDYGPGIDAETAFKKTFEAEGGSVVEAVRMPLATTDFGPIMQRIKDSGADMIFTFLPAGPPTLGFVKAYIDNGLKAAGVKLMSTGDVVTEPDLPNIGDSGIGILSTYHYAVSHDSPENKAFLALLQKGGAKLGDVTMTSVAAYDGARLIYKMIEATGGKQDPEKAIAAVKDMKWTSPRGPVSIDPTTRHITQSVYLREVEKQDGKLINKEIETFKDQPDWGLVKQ
# RPA1789 = target: T4, RPA1789 (Rhodopseudomonas palustris, UniProt Q6N8W4); assay: fluorescence thermal shift (SYPRO orange); conditions: 100x ligand over protein (5 or 10 µM protein); 100 mM HEPES, 150 mM NaCl, pH 7.5
# T4 construct: mature form, signal peptide removed; N-terminal 6xHis-TEV tag retained; E. coli
# T4 sequence (Q6N8W4 27-385): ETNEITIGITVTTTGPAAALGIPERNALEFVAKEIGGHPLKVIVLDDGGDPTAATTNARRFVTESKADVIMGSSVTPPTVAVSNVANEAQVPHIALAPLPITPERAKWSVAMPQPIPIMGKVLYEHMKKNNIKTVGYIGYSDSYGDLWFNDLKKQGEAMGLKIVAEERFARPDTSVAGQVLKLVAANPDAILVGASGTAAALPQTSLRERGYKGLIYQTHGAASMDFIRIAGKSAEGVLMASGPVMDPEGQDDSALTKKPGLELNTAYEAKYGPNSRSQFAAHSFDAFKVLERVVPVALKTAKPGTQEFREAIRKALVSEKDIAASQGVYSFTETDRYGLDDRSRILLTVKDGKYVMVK
# RPA0058 = target: T5, RPA0058 (Rhodopseudomonas palustris, UniProt Q6NDP7); assay: fluorescence thermal shift (SYPRO orange); conditions: 100x ligand over protein (5 or 10 µM protein); 100 mM HEPES, 150 mM NaCl, pH 7.5
# T5 construct: gene ugpB; mature form, signal peptide removed; N-terminal 6xHis-TEV tag retained; E. coli
# T5 sequence (Q6NDP7 24-442): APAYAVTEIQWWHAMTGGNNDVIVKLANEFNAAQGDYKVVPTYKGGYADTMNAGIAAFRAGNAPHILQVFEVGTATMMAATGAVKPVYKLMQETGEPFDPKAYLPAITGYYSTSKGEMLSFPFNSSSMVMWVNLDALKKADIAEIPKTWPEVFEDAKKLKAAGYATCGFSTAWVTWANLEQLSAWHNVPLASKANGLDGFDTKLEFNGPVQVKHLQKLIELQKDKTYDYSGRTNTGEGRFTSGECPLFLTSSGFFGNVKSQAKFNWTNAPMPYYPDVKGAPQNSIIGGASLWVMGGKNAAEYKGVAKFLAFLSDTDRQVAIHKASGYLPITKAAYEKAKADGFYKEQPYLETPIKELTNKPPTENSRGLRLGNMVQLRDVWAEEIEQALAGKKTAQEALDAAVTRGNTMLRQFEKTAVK
# RPA3810 = target: T6, RPA3810 (Rhodopseudomonas palustris, UniProt Q6N384); assay: fluorescence thermal shift (SYPRO orange); conditions: 100x ligand over protein (5 or 10 µM protein); 100 mM HEPES, 150 mM NaCl, pH 7.5
# T6 construct: gene TX73_019730; mature form, signal peptide removed; N-terminal 6xHis-TEV tag retained; E. coli
# T6 sequence (Q6N384 23-368): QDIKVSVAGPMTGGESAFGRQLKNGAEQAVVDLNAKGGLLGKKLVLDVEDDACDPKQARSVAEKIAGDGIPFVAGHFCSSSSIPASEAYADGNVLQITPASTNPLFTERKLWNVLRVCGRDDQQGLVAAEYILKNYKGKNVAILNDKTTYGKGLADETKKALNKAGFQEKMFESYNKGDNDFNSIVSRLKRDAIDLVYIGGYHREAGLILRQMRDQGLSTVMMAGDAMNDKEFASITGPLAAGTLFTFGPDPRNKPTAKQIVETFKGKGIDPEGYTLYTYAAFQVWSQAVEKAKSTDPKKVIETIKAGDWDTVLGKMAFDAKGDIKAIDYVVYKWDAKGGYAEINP
# RPA4780 = target: T7, RPA4780 (Rhodopseudomonas palustris, UniProt Q6N0I2); conditions: 100x ligand over protein (5 or 10 µM protein); 100 mM HEPES, 150 mM NaCl, pH 7.5
# T7 construct: gene pstS; mature form, signal peptide removed; N-terminal 6xHis-TEV tag retained; E. coli
# RPA2014 = target: T8, RPA2014 (Rhodopseudomonas palustris, UniProt Q6N890); assay: fluorescence thermal shift (SYPRO orange); conditions: 100x ligand over protein (5 or 10 µM protein), 100 mM HEPES, 150 mM NaCl, pH 7.5
# T8 construct: gene TX73_010380; mature form, signal peptide removed; N-terminal 6xHis-TEV tag retained; E. coli
# T8 sequence (Q6N890 31-371): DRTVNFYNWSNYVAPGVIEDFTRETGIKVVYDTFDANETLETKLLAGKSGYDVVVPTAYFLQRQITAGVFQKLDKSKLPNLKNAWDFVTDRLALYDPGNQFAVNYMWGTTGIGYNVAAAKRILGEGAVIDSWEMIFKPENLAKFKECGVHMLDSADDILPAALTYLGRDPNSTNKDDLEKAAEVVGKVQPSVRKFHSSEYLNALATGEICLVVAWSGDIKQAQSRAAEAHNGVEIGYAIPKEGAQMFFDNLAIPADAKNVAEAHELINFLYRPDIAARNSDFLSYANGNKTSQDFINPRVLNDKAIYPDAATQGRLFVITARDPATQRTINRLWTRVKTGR
# T2 sequence (G3XCQ4 entry or part of it): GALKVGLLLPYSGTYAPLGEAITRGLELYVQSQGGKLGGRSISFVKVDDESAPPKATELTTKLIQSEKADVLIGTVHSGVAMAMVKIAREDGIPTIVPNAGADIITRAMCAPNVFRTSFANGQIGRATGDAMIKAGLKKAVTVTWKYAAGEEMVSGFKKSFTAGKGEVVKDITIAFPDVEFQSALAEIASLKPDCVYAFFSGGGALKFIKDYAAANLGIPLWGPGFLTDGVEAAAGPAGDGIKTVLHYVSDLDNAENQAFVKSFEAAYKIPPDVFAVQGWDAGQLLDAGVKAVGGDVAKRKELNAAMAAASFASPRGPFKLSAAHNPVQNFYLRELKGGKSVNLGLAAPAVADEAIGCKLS
# T7 sequence (Q6N0I2 22-336): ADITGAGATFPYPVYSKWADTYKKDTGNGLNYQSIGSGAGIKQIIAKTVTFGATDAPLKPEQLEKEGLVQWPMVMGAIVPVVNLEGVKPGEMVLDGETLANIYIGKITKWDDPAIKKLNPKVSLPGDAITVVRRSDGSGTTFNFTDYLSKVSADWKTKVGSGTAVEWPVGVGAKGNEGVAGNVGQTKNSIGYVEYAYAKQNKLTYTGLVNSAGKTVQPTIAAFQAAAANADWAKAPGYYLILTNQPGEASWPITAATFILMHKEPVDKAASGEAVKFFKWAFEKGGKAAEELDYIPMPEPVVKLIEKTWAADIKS
smiles,measurement,setting,value
O=C(O)c1ccc(O)cc1 [4-hydroxybenzoic acid],ΔTm,RPA4029,17 °C
same,ΔTm,RPA0668 (hbaE),"closely related derivatives, 4-hydroxybenzoic acid, salicylate, and benzaldehyde"
same,ΔTm,RPA0985,29.5 °C
O=C(O)/C=C/c1ccccc1 [cinnamic acid],ΔTm,RPA1789,"one protein bound p-coumaric acid, ferulic acid, and cinnamic acid with good affinities"
COc1cc(/C=C/C(=O)O)ccc1O [ferulic acid],ΔTm,RPA1789,"one protein bound p-coumaric acid, ferulic acid, and cinnamic acid with good affinities"
O=P(O)(O)OC[C@H](O)CO [glycerol-3-phosphate],ΔTm,RPA0058,"RPA0058 and RPA4780 exhibited specific stabilization by glycerol-3-phosphate and phosphate, respectively"
NCC(=O)O [glycine],ΔTm,RPA3810,"RPA3810, shifted primarily with amino acids with preferences for alanine, glycine and serine"
O=C(O)/C=C/c1ccc(O)cc1 [p-coumaric acid],ΔTm,RPA1789,"one protein bound p-coumaric acid, ferulic acid, and cinnamic acid with good affinities"
O=P(O)(O)O [phosphate],ΔTm,RPA4780,"RPA0058 and RPA4780 exhibited specific stabilization by glycerol-3-phosphate and phosphate, respectively"
NCCCCN [putrescine],ΔTm,RPA2014,indeed shifted with putrescine preferentially over spermine
O=C(O)c1ccccc1O [salicylic acid],ΔTm,RPA0668 (hbaE),"closely related derivatives, 4-hydroxybenzoic acid, salicylate, and benzaldehyde"
NCCCNCCCCNCCCN [spermine],ΔTm,RPA2014; low affinity,spermine still binds this protein with low affinity in the FTS assay
